Residues, ends and D or L forms follow the SMILES beside them. *: point of attachment. Boc = CC(C)(C)OC(=O)*; OBn = c1ccc(CO*)cc1
Row | melting point [°C] | SMILES
1 | 261 to 262 | O=C(O)c1cc(=O)c2cc(F)ccc2o1
2 | 105 to 107 | COC(=O)C[C@H]1CC[C@H](n2nc(-c3c(-c4ccccc4)nn4ccccc34)ccc2=O)C1 (relative stereo)
3 | 111 to 112 | CNS(=O)(=O)Oc1ccc2c(c1)C(C)(C)C(O)O2 (centres undefined)
4 | 155 to 156 | C=CCOC(=O)c1ccccc1Cn1c(=O)n(S(=O)(=O)c2ccc(Cl)cc2)c(=O)c2ccc(Cl)cc21
5 | 143 to 144 | COc1ccc(C2CNC(=O)C2)cc1OCC(O)CN1CCN(c2ccccc2)CC1 (centres undefined)
6 | 128 to 130 | COC1N=C(c2ccccc2Cl)c2cc(Cl)ccc2-c2cn(C)cc21 (centres undefined)
7 | 138 | COC(=O)c1ccc(C(=O)Nc2sc3c(c2C(=O)NCc2ccc4c(c2)OCO4)CCCC3)cc1
8 | 80.5 to 81 | O=[N+]([O-])c1ccc2c(c1)CN(Cc1ccccc1)C2
9 | 103 to 106 | COCNC(=O)C1CN(C(c2ccccc2)c2ccccc2)C1
10 | 92 to 93 | C=CC(=O)C(CC1CCOCC1)c1ccc(S(=O)(=O)C2CC2)cc1 (centres undefined)
11 | 253 to 255 | CC(=O)NNC(=O)c1[nH]c2ccccc2c1Cl
12 | 183 | CCOC(=O)C1=C(N)NC(c2ccccc2)=C(C(=O)O)C1c1ccccc1 (centres undefined)
13 | 128 | O=C(CO)c1ccc(F)c(F)c1Nc1ccc(I)cc1F
14 | 202 to 204 | Cc1cccc2nc(-c3ccc(Cl)cc3)c(C(N)=O)c(=O)n12
15 | 133 to 135 | CCCCOc1ccc(Nc2cc(Nc3ccc4c(c3)OCCO4)c(F)cn2)cc1
16 | 244 to 247 | CC(C)(CN)c1ccc(-n2c(-c3cc(-c4cnc5ccccc5c4)ccn3)c[nH]c2=O)cc1
17 | 183 to 185 | CN1CCC(c2cnn3c(-c4cccc(NC(=O)c5cccc(C(F)(F)F)c5)c4)ccnc23)CC1
18 | 124 to 126 | CC1(C)CC(=O)OC(NCCCCN2CCN(c3ncccn3)CC2)N1 (centres undefined)
19 | 65 to 67 | O=C1OC(=O)c2c1cccc2C(F)(F)F
20 | 151 to 153 | CCCCCCCCCOc1cc(C(=O)Nc2c(Cl)cncc2Cl)ccc1OC
21 | 154 | Cc1cc(C)cc(C(=O)N2CCC(Oc3nc4ccccc4n3Cc3ccc(F)cc3)CC2Cc2ccccc2)c1 (centres undefined)
22 | 202 to 204 | O=S1(=O)N=C(O)C(c2ccccc2)=N1
23 | 181 to 182 | O=C(Nc1ccc2[nH]ccc2c1)c1ccco1
24 | 100 | Cc1ccc(N(Cc2ccc(N(C)C)cc2)C(=O)Nc2c(C(C)C)cccc2C(C)C)c(C)c1
25 | 239 to 240 | Cc1nc2c(N)nc3ccccc3c2n1CCCNC(=O)C(C)C
26 | 86 to 88 | O=C1c2ccc(Cl)cc2OCN1CCO[N+](=O)[O-]

Row | melting point [°C] | SMILES
27 | 206 to 208 | COc1ccc(Nc2nc(NC3CCCCCC3)nc(Oc3ccccc3I)n2)cc1Cl
28 | 85 to 86 | Cc1c(-c2cc([N+](=O)[O-])c(F)cc2F)ncnc1C(F)F
29 | 83 to 89 | CNC(=O)c1ccccc1Nc1nc(Nc2cc3c(cc2OC)CCN(CC(=O)N(C)C)CC3)ncc1Cl
30 | 190 | N#CC(=C(Nc1ccc2c(c1)OCO2)NC1CCC1)S(=O)(=O)c1ccc(Cl)cc1
31 | 156 to 158 | COc1cc(OC)nc(NC(=O)NS(=O)(=O)c2ncccc2OCCCl)n1
32 | 38 to 39 | COCOc1ccc(C(C)=O)c(O)c1
33 | 298 to 301 | O=[N+]([O-])c1ccc2c(c1)S(=O)(=O)N=C(NC1CCC1)N2
34 | 46 to 47.5 | CCCCCCCCCOc1ccc(-c2ccc(Br)cc2)c(F)c1F
35 | 136 | CCOC(=O)N1CCc2nc3c(C(F)(F)F)cccc3c(C)c2CC1
36 | 252 to 254 | CC1N=C2N(Cc3ccc(Cl)cc3)c3[nH]cnc3C(=O)N2C1C (centres undefined)
37 | 180 | Cc1cccc(C)c1COc1cc(C(=O)N(C)C)cc2c1nc(C)n2C
38 | 256 to 258 | COc1ccc(S(=O)(=O)N(Cc2cccnc2)c2c(C(=O)O)cnc3c2c(C)nn3C)cc1
39 | 90 to 92 | CC(C)(O)COC(=O)N1CCN(C#N)CC1
40 | 118 to 120 | O=C(C[C@@H](CCCC1CCCCC1)c1nc(Cn2cncn2)no1)NO
41 | 270 to 271 | CCC(=O)c1[nH]c(=O)[nH]c1C
42 | 160 | COc1ccc(C(=O)Nc2ccc3ccc(Oc4cccc(C)c4)nc3n2)cc1
43 | 104 to 105 | CCCn1nc(C)c(C#N)c1N
44 | 110 to 111 | CC(=O)OC1=C(OC(C)=O)C(=O)c2cc(Cl)ccc2C1=O
45 | 81 | CCc1oc2ccccc2c1C(=O)c1ccc(OC)cc1
46 | 86 | COC(C=Cc1ccccc1)=C1C(=O)C=C(C)C1=O
47 | 130 to 132 | O=c1ccc(OS(=O)(=O)C(F)(F)F)n[nH]1
48 | 155 to 156 | COC(=O)NN=C1CCc2ccccc21
49 | 102 to 103 | COC(=O)NCC1CC(c2ccccc2)=NO1 (centres undefined)
50 | 202 to 204 | N#Cc1c(N2CCCCC2)cc(-c2cccc3ccccc23)c2c1C(=O)c1ccccc1-2
51 | 233 to 236 | CCOC(=O)c1c[nH]c2c(O)c(OC)ccc2c1=O
52 | 115 to 117 | CC(=O)NC(CO)C(=O)c1ccccc1 (centres undefined)

Row | melting point [°C] | SMILES
53 | 150 to 151 | CC(C)COC(=O)Nc1ccc(C2(O)CCSCC2)cc1
54 | 100 to 101 | CCOCCOC(=O)C1=C(C)NC(C=O)=C(C(=O)OCC)C1c1cccc([N+](=O)[O-])c1 (centres undefined)
55 | 68 to 69 | CCCCCCCCCCCCCCCCOc1ccc(OCC(=O)NCc2ccccn2)cc1
56 | 192 | COc1c2c(cc3ccccc13)CCC(C(=O)O)C2 (centres undefined)
57 | > 290 | C=Cc1c[nH]c(=O)nc1N
58 | 88 to 89 | CCCc1ccc2nnc(C(=O)OCC)cc2c1
59 | 206 to 210 | O=C(O)CCCc1cc2cc(Cl)ccc2n1S(=O)(=O)c1cccc2ccccc12
60 | 148 to 149 | COC(=O)C1=C(CF)NC(C)=C(C(=O)OC(C)C)C1c1cccc(Cl)c1Cl (centres undefined)
61 | 128 to 130 | Nc1ccc(N2CCN(CCCC(=O)c3ccc(F)cc3)CC2)nc1N
62 | 145 to 146 | COc1cc2c(c(Cl)c1Cl)C(=O)C(C)(c1cccs1)C2 (centres undefined)
63 | 195 to 200 | CC(NC(=O)Cc1cc(F)cc(F)c1)C(=O)NC1C(=O)NC(F)c2ccccc21 (centres undefined)
64 | 50 | CCCCCCCCCCc1ccc(C[N+](=O)[O-])cc1
65 | 181 | COc1ccc(C(=C2CN(C(c3ccccc3)c3ccccc3)C2)S(C)(=O)=O)cc1
66 | 123 to 125 | CCCCCCNc1ncnc(N(C)C)c1N
67 | 140 to 142 | CCN1c2ncc(CSc3ccncc3)cc2C(=O)N(C)c2ccc(Cl)nc21
68 | 120 to 121 | CCOC(=O)Cc1sc(Sc2cc(C(=O)OCC)nc3c(OC)cccc23)nc1C
69 | 121 to 123 | CCCCCCCCCCCCCCCCCCn1c(C)c(CC(=O)NN)c2cc(OC)ccc21
70 | 138 to 139 | CCCCCNc1cc(C(=O)OCCCCC)cc(S(N)(=O)=O)c1Oc1ccccc1
71 | 130 to 132 | CCOC12CC(C)(C)C(O1)C(OC(=O)c1ccc(N)cc1)C=C2C (centres undefined)
72 | 148 to 150 | CC(C)(C)OC(=O)NNc1ccc2ccccc2n1
73 | 80 to 82 | CN(C)C=C(C#N)C(=O)c1cccc(Oc2ccccc2)c1
74 | 76 to 77 | Nc1cccc(Oc2ccc(Cl)nn2)c1
75 | 160 to 162 | CCCCSc1cc(C(=O)OCC)cc(S(N)(=O)=O)c1Cl
76 | 126 to 128 | Cc1ccc(CC(N)C(O)C(N)Cc2ccccc2)cc1 (centres undefined)
77 | 260 | NS(=O)(=O)c1ccc(-c2noc(-c3cnn4c(C5CC5)cc(-c5ccc(Cl)cc5)nc34)n2)cc1
78 | 200 to 201 | CCC(C)(NC(=O)C1=C(C(=O)Nc2cc(OC3CCCC3)c(Cl)cc2F)CCCC1)c1ccc(Cl)cc1 (centres undefined)

Row | melting point [°C] | SMILES
79 | 128 to 130 | CC(=NOCCO)c1ccc(-c2ccccc2)cc1
80 | 148 to 150 | CCCCc1nn2c(c1Cc1ccc(C(=O)O)cc1)CCCC2
81 | 230 to 231 | C#CC(C)(O)C1CCC2C3CCC4CC(F)CCC4(C)C3CCC21C (centres undefined)
82 | 160 | O=C(NC1Cc2ccccc2C1)C(F)(F)F
83 | 105 to 107 | CN(C)S(=O)(=O)Oc1ccc(-c2ccccc2)cc1
84 | 149 to 150 | CCOC(=O)C1=C(C)NC(C)=C(C(=O)OCC)C1c1cccc(F)c1
85 | 104 | OC(CN1CCC(C(O)c2ccccc2)CC1)c1ccccc1 (centres undefined)
86 | 198 | N#Cc1c(N2CCCC2)nsc1N
87 | 83 | CC(C)(C)OC(=O)NCC(=O)NCC(=O)OCc1ccccc1 (Boc-Gly-Gly-OBn)
88 | 177 to 182 | CC(C)(C)NCC(O)c1cc(Cl)c(NC(=O)c2ccccc2)c(Cl)c1 (centres undefined)
89 | 58 to 61 | COC(=O)C1=CCC2CC(=O)C12 (centres undefined)
90 | 83 to 86 | CCOc1ccccc1O[C@@H](c1ccccc1)[C@@H](CO)OS(C)(=O)=O (racemic)
91 | 265 | O=C1Nc2c(Cl)cc(Cl)c3cccc1c23
92 | 113 to 114 | CC(Cl)=CC(C#N)NC(=O)c1cn(C)nc1C (centres undefined)
93 | 140 to 142 | CC(Oc1cc2c(c(Cl)c1Cl)C(=O)C(C)(C1CCCC1)C2)C(=O)O (centres undefined)
94 | 154 to 156 | Cc1c(NC(=O)c2ccc(-c3ccc(F)cc3)cc2)ccc2cc(CN3CCC(CCCC(=O)N4CCCCC4)CC3)cnc12
95 | 188 to 190 | N#Cc1cnn2c1N(C(=O)CN1CCN(Cc3ccccc3F)CC1)CC=C2c1cccc(C(F)(F)F)c1
96 | 92 to 92.5 | CSC(=C[N+](=O)[O-])NCCCBr
97 | 39 to 40 | COC(=O)CCc1cc(F)ccc1C(=O)CCCNC(C)=O
98 | 228 to 234 | COc1ccc(-c2nc(C(F)(F)F)[nH]c2-c2ccc(S(C)(=O)=O)cc2)cc1F
99 | 141 to 142 | O=C(O)CCCCn1ccc2cc([N+](=O)[O-])ccc21
100 | 110 to 111 | Cc1ccccc1CC(=O)N1CCN(c2nccs2)CC1
101 | 129 to 130 | CC(=O)Nc1nc2c(s1)CCN(Cc1ccccc1)CC2

Row | SMILES | melting point [°C]
102 | CC(C)OC(=O)NC1(c2ccccc2Cl)CCCCC1=O (centres undefined) | 124 to 126
103 | CC(C)(C)OC(=O)C(Cl)=CC1C(C(=O)OC(C#N)c2ccc(F)c(Oc3ccccc3)c2)C1(C)C (centres undefined) | 94
104 | CC(=O)Nc1cccc(C#Cc2ccc(OC3CN4CCC3CC4)nn2)c1 (centres undefined) | 132 to 134

From a melting point compilation (Tetko et al.; mined from patent text by program, amines drawn as free bases though some values may be those of a salt)
